What was measured:
Type in all cases: biochemical
[1] = test system: 20-HETE producing enzymes, human kidney microsome; experiment: Inhibition test against 20-HETE producing enzymes using human kidney microsomes (LC-MS/MS); settings: for inhibitory activities against 20-HETE producing enzymes compared to compound A and compound B: comparison with compound A and compound B of WO03/022821, human kidney microsomes; for IC50: human kidney microsome 250 μg/mL protein, 20 μM arachidonic acid, 37° C. 45 minutes, LC-MS/MS
Experimental: (1) Inhibition Test for Each Compound of the Present Invention Against 20-HETE Producing Enzymes Using Human Kidney Microsomes
The reaction solution containing each compound [final concentration of 100 mM, KPO4 (pH 7.4), 20 μM Arachidonic acid, 4 mM NADPH] was added to the human kidney microsome (250 μg/mL protein). Following this, the microsome was left to stand at 37° C. for 45 minutes to perform 20-HETE producing reaction. After adding formic acid to stop the reaction, 9 times amount of acetonitrile was added, and deproteinization was carried out by centrifugation (1000 rpm, 4° C., 10 minutes). After that, the peak area value of 20-HETE was measured using a liquid chromatograph-tandem mass spectrometer (LC-MS/MS), and by using that value, the percent inhibition of 20-HETE producing enzyme (%) was calculated according to the equation described below, and the 50% inhibitory concentration (IC50 value) for each compound was calculated. Percent inhibition of 20-HETE producing enzyme (%)=[1−(A−B)/(C−B)]*100
A: Peak area value of 20-HETE/peak area value of internal standard substance with addition of compound
B: Peak area value of 20-HETE/peak area value of internal standard substance without addition of compound and NADPH
C: Peak area value of 20-HETE/peak area value of internal standard substance without addition of compound
(3) Inhibition Test for Compound a and Compound B Disclosed in WO03/022821 Against 20-HETE Producing Enzymes Using Human Kidney Microsomes
For compound A and compound B disclosed in WO03/022821, which have been described above, the 50% inhibitory concentration (IC50 value) against 20-HETE producing enzymes was calculated according to the method described in Test Example 2.
On the other hand, as described above, in Test Example 2, nonradioactive arachidonic acid was used as a substrate for 20-HETE producing reaction, and the amount of 20-HETE produced was measured using LC-MS/MS. In this case, the concentration of arachidonic acid, the substrate, is 20 μM.
In recent years, it is recommended that the substrate concentration for calculating the IC50 value be set at the Km value (Assay Guidance Manual, Sittampalam et. al. (URL: http://www.ncbi.nlm.nih.gov/books/NBK53196/)). According to this, in Test Example 2 described above, human kidney microsomes were used to calculate the Km value, and the calculated Km value of 20 μM was set as the concentration of the substrate, arachidonic acid.

human CYP4A11 = human CYP4A11 (Homo sapiens (Human), UniProt Q02928); experiment: Inhibition test against 20-HETE producing enzyme CYP4A11 (luciferine derivative, luminescence)
Outline: (§1)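 IC50 derived from luminescence after 60 min at room temperature with membrane fractions of E. coli expressing each human CYP (100 μg/mL protein). For CYP4A11, 60 μM luciferin derivative in 100 mM Tris-HCl pH 7.5 with NADPH-regenerating system; for CYP4F2, 2.5 μM substrate, 1 mM NADPH, 50 mM KPO4 pH 7.4.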

human CYP4F2 = human CYP4F2 (Homo sapiens (Human), UniProt P78329); experiment: Inhibition test against 20-HETE producing enzyme CYP4F2 (luciferine derivative, luminescence)
Outline: as §1

human CYP4V2 = human CYP4V2 (Homo sapiens (Human), UniProt Q6ZWL3); experiment: CYP4V2 selectivity test; settings: cell membrane fraction expressing human CYP4V2, 7 μM luciferine derivative, 40 minutes
Experimental: (3) CYP4V2 Selectivity Test for Each Compound of the Present Invention
(§2) The reaction solution containing each compound [final concentration of 100 mM KPO4 (pH 7.4), 7 μM luciferine derivative, and 1 mM NADPH] was added to a cell membrane fraction (38 μg/mL protein) in which human CYP4V2 had been expressed. Following this, the cell membrane fraction was left to stand at room temperature for 40 minutes to perform an enzymatic reaction. After the reaction, a luciferine detection reagent was added, and the luminescence value was measured using a plate reader. By using that value, the percent inhibition of the enzymatic reaction of CYP4V2(%) was calculated according to the equation described below, and the 50% inhibitory concentration (IC50 value) for each compound was calculated. Percent inhibition of CYP4V2 enzyme (%)=[1−(A−B)/(C−B)]*100
(§3) A: Luminescence value with addition of compound
(§4) B: Luminescence value without addition of compound and enzyme
(§5) C: Luminescence value without addition of compound

human CYP4F22 = human CYP4F22 (Homo sapiens (Human), UniProt Q6NT55); experiment: CYP4F22 selectivity test; settings: cell membrane fraction expressing human CYP4F22, 14 μM luciferine derivative, 50 minutes
Experimental: (1) CYP4F22 Selectivity Test for Each Compound of the Present Invention
as §2, with “7.4), 14” for “7.4), 7”, “fraction (30” for “fraction (38”, “human CYP4F22” for “human CYP4V2”, “for 50” for “for 40”, “of CYP4F22(%)” for “of CYP4V2(%)”, “of CYP4F22” for “of CYP4V2”
as §3, §4, §5

[2] = E. coli membrane fraction expressing human CYP4A11, 60 μM luciferine derivative, room temperature 60 minutes
[3] = E. coli membrane fraction expressing human CYP4F2, 2.5 μM luciferine derivative, room temperature 60 minutes
[4] = human CYP4A11, luciferine derivative, luminescence
[5] = human CYP4F2, luciferine derivative, luminescence

Chain of human CYP4A11 (Q02928 5-519): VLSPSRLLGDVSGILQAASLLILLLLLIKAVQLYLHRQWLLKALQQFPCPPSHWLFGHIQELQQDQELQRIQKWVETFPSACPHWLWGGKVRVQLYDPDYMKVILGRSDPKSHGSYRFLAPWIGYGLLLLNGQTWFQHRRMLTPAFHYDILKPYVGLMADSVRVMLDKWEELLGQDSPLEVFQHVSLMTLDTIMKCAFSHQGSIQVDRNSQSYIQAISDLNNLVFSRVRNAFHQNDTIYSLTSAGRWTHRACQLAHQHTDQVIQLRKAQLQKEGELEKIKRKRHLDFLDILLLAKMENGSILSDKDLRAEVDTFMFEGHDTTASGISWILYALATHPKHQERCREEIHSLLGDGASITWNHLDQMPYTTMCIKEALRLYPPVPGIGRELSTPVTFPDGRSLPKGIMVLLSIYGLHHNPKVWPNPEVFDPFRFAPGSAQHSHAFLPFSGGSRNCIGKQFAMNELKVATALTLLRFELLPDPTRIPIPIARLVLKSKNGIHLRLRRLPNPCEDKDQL
Chain of human CYP4V2 (Q6ZWL3 whole entry): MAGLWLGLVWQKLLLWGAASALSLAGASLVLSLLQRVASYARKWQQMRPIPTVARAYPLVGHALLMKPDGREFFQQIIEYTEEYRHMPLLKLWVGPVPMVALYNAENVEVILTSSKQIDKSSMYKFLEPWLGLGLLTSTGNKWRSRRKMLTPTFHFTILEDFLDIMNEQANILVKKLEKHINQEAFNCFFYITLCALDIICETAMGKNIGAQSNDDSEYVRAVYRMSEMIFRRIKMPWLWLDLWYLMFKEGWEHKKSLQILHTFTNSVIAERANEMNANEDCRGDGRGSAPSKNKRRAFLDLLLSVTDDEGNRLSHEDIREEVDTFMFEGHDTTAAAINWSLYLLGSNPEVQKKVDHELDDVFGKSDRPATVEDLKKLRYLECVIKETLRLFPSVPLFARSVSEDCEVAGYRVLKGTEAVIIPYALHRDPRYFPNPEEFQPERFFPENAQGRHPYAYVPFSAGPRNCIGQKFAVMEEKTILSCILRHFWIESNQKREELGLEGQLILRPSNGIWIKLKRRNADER
Chain of human CYP4F22 (Q6NT55 whole entry): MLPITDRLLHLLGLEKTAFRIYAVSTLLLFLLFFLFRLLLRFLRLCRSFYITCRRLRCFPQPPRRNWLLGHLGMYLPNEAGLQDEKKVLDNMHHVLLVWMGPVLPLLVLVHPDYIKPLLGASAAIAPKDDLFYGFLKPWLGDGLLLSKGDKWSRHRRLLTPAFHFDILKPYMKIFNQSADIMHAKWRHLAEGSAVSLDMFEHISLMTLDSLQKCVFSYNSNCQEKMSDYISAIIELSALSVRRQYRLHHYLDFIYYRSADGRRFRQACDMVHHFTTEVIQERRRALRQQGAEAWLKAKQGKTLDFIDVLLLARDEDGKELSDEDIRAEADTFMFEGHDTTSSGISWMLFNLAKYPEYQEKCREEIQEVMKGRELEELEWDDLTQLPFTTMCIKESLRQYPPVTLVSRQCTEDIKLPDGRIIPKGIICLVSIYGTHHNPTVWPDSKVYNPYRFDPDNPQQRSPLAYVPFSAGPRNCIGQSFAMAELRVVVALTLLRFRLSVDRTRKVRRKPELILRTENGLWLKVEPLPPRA
Chain of human CYP4F2 (P78329 5-520): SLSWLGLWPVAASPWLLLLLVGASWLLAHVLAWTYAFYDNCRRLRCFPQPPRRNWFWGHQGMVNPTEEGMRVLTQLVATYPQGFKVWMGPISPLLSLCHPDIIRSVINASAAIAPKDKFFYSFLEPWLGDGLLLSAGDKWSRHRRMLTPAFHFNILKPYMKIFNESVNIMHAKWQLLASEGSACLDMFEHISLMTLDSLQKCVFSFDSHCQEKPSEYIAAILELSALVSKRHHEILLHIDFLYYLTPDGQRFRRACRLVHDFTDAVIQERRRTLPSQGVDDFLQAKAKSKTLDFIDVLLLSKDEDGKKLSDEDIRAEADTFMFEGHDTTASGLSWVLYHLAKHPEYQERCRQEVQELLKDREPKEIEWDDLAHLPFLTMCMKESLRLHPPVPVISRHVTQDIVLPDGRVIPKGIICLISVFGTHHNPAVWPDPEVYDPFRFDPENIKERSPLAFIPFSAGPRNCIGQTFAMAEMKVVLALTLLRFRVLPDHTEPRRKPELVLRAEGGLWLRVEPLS

Row | Compound | inhibitory activities against 20-HETE producing enzymes compared to compound A and compound B [1] | IC50 [1] [nM] | IC50 (human CYP4A11; [2]) [nM] | IC50 (human CYP4F2; [3]) [nM] | IC50 (human CYP4V2) [nM] | IC50 (human CYP4A11; [4]) [nM] | IC50 (human CYP4F22) [nM] | IC50 (human CYP4F2; [5]) [nM]
1 | O=C(O)C1CC1c1cccc(COc2ccc(-c3ccn[nH]3)nc2)c1 (single isomer, unassigned) [Example 26-2, trans-2-[3-[[6-(1H-Pyrazol-5-yl)-3-pyridinyl]oxymethyl]phenyl]-1-cyclopropanecarboxylic Acid (Optically Active Substance)] | stronger inhibitory activities | 26 | 23 | 890 |  |  |  | 
2 | O=C(O)C1CC1c1cccc(COc2ccc(-c3ccn[nH]3)nc2)c1 (single isomer, unassigned) [Example 26-3, trans-2-[3-[[6-(1H-Pyrazol-5-yl)-3-pyridinyl]oxymethyl]phenyl]-1-cyclopropanecarboxylic Acid (Optically Active Substance, Enantiomer of Compound of Example 26-2)] | stronger inhibitory activities | 30 | 24 | 1500 |  |  |  | 
3 | O=C(O)C1CC1c1ccc(CCOc2ccc(-c3ccn[nH]3)nc2)c(F)c1 (single isomer, unassigned) [Example 71-18] |  | 6 |  |  | 2100 | 110 | 1900 | 83
4 | CC(=O)N1CCN(CCOc2ccc(-c3ccn[nH]3)cc2)CC1 [Compound A, reference compound] |  | 408 | 11000 | 1000 |  |  |  | 
5 | CCOC(=O)N1CCN(CCOc2ccc(-c3ccn[nH]3)cn2)CC1 [Compound B, reference compound] |  | 15600 | > 50000 | 36000 |  |  |  | 
6 | O=C(O)C12CC(CCCCCCOc3ccc(-c4ccn[nH]4)nc3)(C1)C2 [Example 1-53] | stronger inhibitory activities | 14 | 61 | 330 |  |  |  | 
7 | O=C(O)C1CCc2ccc(COc3ccc(-c4ccn[nH]4)nc3)cc2C1 (stereo not drawn) [Example 1-56] | stronger inhibitory activities | 20 | 27 | 170 |  |  |  | 
8 | CC(C)(COCCCCCCOc1ccc(-c2ccn[nH]2)nc1)C(=O)O [Example 1-57, 2,2-Dimethyl-3-[6-[[6-(1H-pyrazol-5-yl)-3-pyridinyl]oxy]hexoxy]propanoic Acid] | stronger inhibitory activities | 19 | 110 | 340 |  |  |  | 
9 | O=C(O)C1COc2ccc(COc3ccc(-c4ccn[nH]4)nc3)cc2C1 (stereo not drawn) [Example 1-68] | stronger inhibitory activities | 26 | 28 | 640 |  |  |  | 
10 | O=C(O)C1CCc2ccc(COc3ccc(-c4ccn[nH]4)nc3)cc2O1 (stereo not drawn) [Example 1-70] | stronger inhibitory activities | 37 | 62 | 140 |  |  |  | 
11 | O=C(O)C1(CCCCCCCCOc2ccc(-c3ccn[nH]3)nc2)CCOCC1 [Example 3-1, 4-[8-[[6-(1H-Pyrazol-5-yl)-3-pyridinyl]oxy]octyl]-4-oxanecarboxylic Acid] | stronger inhibitory activities | 10 | 190 | 24 |  |  |  | 
12 | O=C(O)c1ccc2c(c1)CC(COc1ccc(-c3ccn[nH]3)nc1)CC2 (stereo not drawn) [Example 5-1, 7-[[6-(1H-Pyrazol-5-yl)-3-pyridinyl]oxymethyl]-5,6,7,8-tetrahydronaphthalene-2-carboxylic Acid] | stronger inhibitory activities | 8.2 | 22 | 33 |  |  |  | 
13 | O=C(O)C1CCCN(S(=O)(=O)c2cccc(COc3ccc(-c4ccn[nH]4)nc3)c2)C1 (stereo not drawn) [Example 22-9] | stronger inhibitory activities | 15 | 45 | 180 |  |  |  | 
14 | O=C(O)C1(F)CCN(S(=O)(=O)c2cccc(COc3ccc(-c4ccn[nH]4)nc3)c2)C1 (stereo not drawn) [Example 22-11] | stronger inhibitory activities | 15 | 28 | 700 |  |  |  | 
15 | CC(C)(COc1cc(COc2ccc(-c3ccn[nH]3)nc2)ccn1)C(=O)O [Example 22-14] | stronger inhibitory activities | 32 | 70 | 380 |  |  |  | 
16 | O=C(O)C1(OCCCCCCCCOc2ccc(-c3ccn[nH]3)nc2)CCOCC1 [Example 68-1, 4-[8-[[6-(1H-Pyrazol-5-yl)-3-pyridinyl]oxy]octoxy]-4-oxanecarboxylic Acid] | stronger inhibitory activities | 6.9 | 620 | 39 |  |  |  | 
17 | O=C(O)C1CC1c1cccc(CCOc2ccc(-c3ccn[nH]3)nc2)c1 (stereo not drawn) [Example 70-7] |  | 16 |  |  | 2900 | 50 | 1400 | 320
18 | O=C(O)[C@@H]1C[C@@H]1c1ccc(CCOc2ccc(-c3ccn[nH]3)nc2)cc1 [Example 70-10-1] |  | 6.4 |  |  | 3300 | 160 | 2300 | 120
19 | O=C(O)C1(OCCCCCCCOc2ccc(-c3ccn[nH]3)nc2)COC1 [Example 71-6] |  | 11 |  |  | 1200 | 230 | 370 | 100
20 | O=C(O)C1(CCCCCCCCOc2ccc(-c3ccn[nH]3)nc2)CS(=O)(=O)C1 [Example 73-1, 1,1-Dioxo-3-[8-[6-(1H-pyrazol-5-yl)pyridin-3-yl]oxyoctyl]thietane-3-carboxylic Acid] |  | 1.7 |  |  | 660 | 160 | 2300 | 12
21 | O=C(O)C1CC1c1cc(CCOc2ccc(-c3ccn[nH]3)nc2)ccc1F (stereo not drawn) [Example 74-2] |  | 20 |  |  | 2300 | 53 | 280 | 130
22 | O=C(O)[C@@H]1C[C@H]1c1cccc(CCOc2ccc(-c3ccn[nH]3)nc2)c1F [Example 74-5] |  | 9.1 |  |  | 5000 | 88 | 3000 | 80
